Reference: US20150290099A1, “NOVEL PSEUDOCERAMIDE COMPOUND AND PRODUCTION METHOD FOR SAME” (AMOREPACIFIC CORPORATION, priority 2012, published 2015)

Key:
[1] = system: Keraskin™ artificial skin; experiment: Recovery of damaged artificial skin (measurement of transepithelial electrical resistance); format: cell-based; conditions: for Change of TEER (%): Keraskin artificial skin, TEER after 24 h post-incubation divided by the initial value
Protocol: Transepithelial electrical resistance was measured in order to test recovery of damaged artificial skin by the compound of Example 2. Dodecanoic acid 2-dodecanoylamino-3-hydroxy-2-hydroxymethyl-propyl ester obtained from the Example 2 and phosphate buffered saline (PBS), octyl methoxycinnamate (OMC) and PC-104 were tested for comparison.
Transepithelial electrical resistance (TEER) of Keraskin™ purchased from MCTT was measured after 22 hours of pre-incubation. After placing the Keraskin™ on a 6-well plate, 400 μL of a medium was added in an insert and 5 mL of the medium was added outside the insert such that an even level was achieved inside and outside the insert. Then, measurement was made with the electrode tips of a resistance meter inside and outside the insert. TEER was measured for all the inserts, prior to the test, after treatment with the substances of Example 2 and Comparative Examples 1-3 and 24 hours after post-incubation. The TEER after the post-incubation was divided by the initial value to calculate the change in %.

artificial skin = experiment: Quantitative analysis of ceramide in artificial skin; format: cell-based; parameters: C18SM: unit not given here; conditions: for C18SM / ceramide in artificial skin (ng/mg skin): artificial skin, LC analysis, corrected for skin weight
Protocol: Artificial skin was weighed and put in a 4-mL glass vial. After adding 2400 μL of CHCl3/MeOH (=½) and 100 μL of IS STD, the artificial skin was cut into small pieces with scissors. After sonication for 30 minutes, solutions mixing sodium lauryl sulfate (SLS) to each of dodecanoic acid 2-dodecanoylamino-3-hydroxy-2-hydroxymethyl-propyl ester obtained from the Example 2, phosphate buffered saline (PBS), octyl methoxycinnamate (OMC) and PC-104, as described in Table 2, were filtered through a PTFE syringe filter, and 1250 μL of each filtrate was transferred to an EP tube.
After completely removing the solvent using a speed vacuum dryer, the residue was redissolved by adding 100 μL of an analytical mobile phase. After centrifugation, only the supernatant was taken and analyzed after transferring to an LC vial. The concentration of ceramide was corrected for the weight of the artificial skin.

[2] = test substance mixed with sodium lauryl sulfate (SLS)

Compound | Change of TEER (%) [1] [%] | C18SM (artificial skin; PBS instead of SLS) | ceramide in artificial skin (ng/mg skin) (artificial skin; PBS instead of SLS) | C18SM (artificial skin; [2]) | ceramide in artificial skin (ng/mg skin) (artificial skin; [2]) | effect of recovering damaged artificial skin (TEER), in words ([1]; compared with PC-104) | ceramide content in the artificial skin, in words (artificial skin; compared with PC-104)
CCCCC(CC)COC(=O)C=Cc1ccc(OC)cc1 (stereo not shown) [Comparative Example 2, octyl methoxycinnamate] | 30.9 | 1747.3 | 990.8 | 843.6 | 758.3 | – | –
CCCCCCCCCCCCCCCC(=O)N(CCO)CC(O)CN(CCO)C(=O)CCCCCCCCCCCCCCC [Comparative Example 3] | 35.7 | – | – | 1141.1 | 995.5 | – | –
CCCCCCCCCCCC(=O)NC(CO)(CO)COC(=O)CCCCCCCCCCC [Example 2, dodecanoic acid 2-dodecanoylamino-3-hydroxy-2-hydroxymethyl-propyl ester] | 70.8 | – | – | 1811.5 | 1152.4 | higher than the conventionally used PC-104 | higher than that for PC-104
